According to patent publication US11186617B2, “Epitope” (HOYU CO., LTD., priority 2017, dated 2021):
“Also recorded” adds a separate entry of the source.

Tests used:
[1] = test system: IgE antibody in the serum from a patient; assay: Epitope mapping (2): overlapping peptide library, ELISA; format: binding, human; conditions: overlapping peptide fragments, 10 amino acids in length; 10 μg/ml biotin-bound peptide; 2% serum from patient 1; FIG. 2
Method: Based on the sequences (SEQ ID NOs: 6 and 13) of the peptides to which the IgE antibody in the serum bound in a manner specific to a patient in the above (A), a library of overlapping peptide fragments (10 amino acids in length) was prepared. The library was prepared using the sequences where sequences of the previous sequence and the next sequence of the aforementioned peptides in the full-length amino acid sequence of ω-5 gliadin from bread wheat (SEQ ID NO: 51) were added to the aforementioned peptides, and epitope mapping was performed.
Each synthesized peptide was shifted by one amino acid. In other words, each peptide overlaps with the previous peptide and the next peptide, each by 9 amino acids.
The target peptide was synthesized on the amino-modified resin in a 96-well plate by a method similar to that described above for (A). Biotin was bound to the amino terminus of the synthesized target peptide, with the biotin and the peptide sandwiching amino caproic acid derived from Fmoc-Acp(6)-OH as a spacer.
Said library was used to measure whether each peptide fragment is bound by the IgE antibody in the serum from a patient due to an antigen-antibody reaction, or not, and identify a sequence common to the peptides bound by the IgE antibody from the patient, thereby determining a peptide having the shortest amino acid sequence that serves as an epitope. Measurement was performed by an ELISA method in accordance with the following procedures.
(1) 10 μg/ml biotin-bound peptide of the library was prepared in PBST solution and was shaken in an avidin-coated ELISA plate for one hour at room temperature.
(2) The plate was washed with PBST solution.
(3) The plate was shaken in PBST solution with 1% skimmed milk for one hour at room temperature.
(4) The plate was shaken in PBST solution with 2% serum and 1% skimmed milk for one hour at room temperature.
(5) The plate was washed with PBST solution.
(6) Anti-human IgE antibody-HRP (1:10,000, PBST solution with 1% skimmed milk) was added and the plate was shaken for one hour at room temperature.
(7) The plate was washed with PBST solution.
(8) 20 μl of TMB ELISA (manufactured by Thermo Fisher Scientific) was added and the plate was shaken for 15 minutes at room temperature.
(9) 20 μl of 2 M sulfuric acid was added to quench an enzymatic reaction.
(10) An absorbance at 450 nm was measured.
(SEQ ID NO: 15), a subsequence of ω-5 gliadin from bread wheat, was measured by the overlapping technique in the library prepared based on SEQ ID NO: 6 and the obtained result is shown in FIG. 2. […] (SEQ ID NO: 23), a subsequence of ω-5 gliadin from bread wheat, was measured by the overlapping technique in the library prepared based on SEQ ID NO: 13 and the obtained result is shown in FIG. 2.

[2] = test system: IgE antibody from the healthy subject; assay: Epitope mapping (3): alanine scanning ELISA, healthy subject serum; format: binding, human; conditions: alanine-substituted peptides; sera from healthy individuals 1 and 2; FIG. 3
Method: (§1) The amino acid sequence of SEQ ID NO: 22 and the amino acid sequence of SEQ ID NO: 29 identified in the above-mentioned (B) were subjected to a technique referred to as alanine scanning (Non Patent Literature 1). Specifically, a library of peptide fragments was prepared by a technique similar to that described above in (B), in which the peptide fragments were produced by substituting one amino acid at a time with alanine in each amino acid sequence of […], starting from the amino acid at an amino terminal side. Then, a technique similar to that described above in (B) was used to measure whether each peptide fragment was bound by the IgE antibody in the serum from a patient and a healthy subject, or not. When alanine substitution of an amino acid at a certain position led to loss or reduction of binding activity to the IgE antibody from the patient and development of binding activity to the IgE antibody from the healthy subject, the amino acid was determined to be an amino acid important for expression of inherent antigenicity or an amino acid affecting expression of inherent antigenicity. […] A common sequence important for expression of inherent antigenicity was discovered by this analysis.
(§2) The result of alanine scanning performed on the amino acid sequence of SEQ ID NO: 22 and the result of alanine scanning performed on the amino acid sequence of SEQ ID NO: 29 are shown in FIG. 3, respectively.

[3] = test system: IgE antibody from the patient; assay: Epitope mapping (3): alanine scanning ELISA, patient serum; format: binding, human; conditions: alanine-substituted peptides; serum from patient 1; FIG. 3
Method: as §1, §2

[4] = test system: anti-human IgE antibody as a secondary antibody; assay: Epitope mapping (3): alanine scanning ELISA, secondary antibody used alone; format: binding; conditions: alanine-substituted peptides, FIG. 3
From the text: FIG. 3 is a diagram showing the result of investigation of positions important for exerting antigenicity in SEQ ID NOs: 22 and 29 by an alanine scanning technique. The number on the horizontal axis denotes a value of coloration intensity at 450 nm measured by an absorption spectrometer (Abs.). In this figure, a double wavy line denotes that a value is not shown, P1 denotes that the serum from patient 1 was used, N1 and N2 denote that the sera from healthy individuals 1 and 2 were used, and 2nd denotes that an anti-human IgE antibody as a secondary antibody was used alone.
as §1, §2

Substance	binding with the IgE antibody from the patient (absorbance at 450 nm) [1]	binding activity to the IgE antibody from the healthy subject (absorbance at 450 nm) [2]	binding activity to the IgE antibody from the patient (absorbance at 450 nm) [3]	binding activity to the anti-human IgE antibody as the secondary antibody (absorbance at 450 nm) [4]
SEQ ID NO: 18: overlapping 10-amino-acid peptide fragment from SEQ ID NO: 15 library, contains SEQ ID NO: 22 (QQEFPQQQQF; epitope candidate)	strong binding	–	–	–
SEQ ID NO: 39: amino acid at position 4 in SEQ ID NO: 29 substituted with alanine (PQQAPPQQHQFPQQQ; modified epitope)	–	did not develop binding activity	retained binding activity	–
SEQ ID NO: 30: amino acid at position 7 in SEQ ID NO: 22 substituted with alanine (QQFPQQEFPQQAQFP; modified epitope)	–	–	lost or reduced	developed binding activity
SEQ ID NO: 41: amino acid at position 2 in SEQ ID NO: 29 substituted with alanine (PAQQPPQQHQFPQQQ; modified epitope)	–	–	a relatively low level of reduction of binding activity	–
SEQ ID NO: 19: overlapping 10-amino-acid peptide fragment from SEQ ID NO: 15 library, contains SEQ ID NO: 22 (PQQEFPQQQQ; epitope candidate)	slightly weaker binding	–	–	–
SEQ ID NO: 25: overlapping 10-amino-acid peptide fragment from SEQ ID NO: 23 library, contains SEQ ID NO: 29 (PQQQPPQQHQ; epitope candidate)	strong binding	–	–	–
SEQ ID NO: 31: amino acid at position 6 in SEQ ID NO: 22 substituted with alanine (QQFPQQEFPQAQQFP; modified epitope)	–	developed a relatively low level of binding activity	slightly reduced binding activity	developed a relatively low level of binding activity
SEQ ID NO: 24: overlapping 10-amino-acid peptide fragment from SEQ ID NO: 23 library (QQQPPQQHQF; epitope candidate)	no binding	–	–	–
SEQ ID NO: 34: amino acid at position 2 in SEQ ID NO: 22 substituted with alanine (QQFPQQAFPQQQQFP; modified epitope)	–	developed binding activity	slightly increased binding activity	–
SEQ ID NO: 20: overlapping 10-amino-acid peptide fragment from SEQ ID NO: 15 library, contains SEQ ID NO: 22 (FPQQEFPQQQ; epitope candidate)	strong binding	–	–	–
SEQ ID NO: 42: amino acid at position 1 in SEQ ID NO: 29 substituted with alanine (AQQQPPQQHQFPQQQ; Artificial Sequnece; modified epitope)	–	–	loss of binding activity	–
SEQ ID NO: 40: amino acid at position 3 in SEQ ID NO: 29 substituted with alanine (PQAQPPQQHQFPQQQ; modified epitope)	–	–	loss of binding activity	developed binding activity
SEQ ID NO: 26: overlapping 10-amino-acid peptide fragment from SEQ ID NO: 23 library, contains SEQ ID NO: 29 (FPQQQPPQQH; epitope candidate)	strong binding	–	–	–
SEQ ID NO: 32: amino acid at position 5 in SEQ ID NO: 22 substituted with alanine (QQFPQQEFPAQQQFP; modified epitope)	–	did not develop binding activity	reduced binding activity	did not develop binding activity
SEQ ID NO: 16: overlapping 10-amino-acid peptide fragment from SEQ ID NO: 15 library (EFPQQQQFPQ; epitope candidate)	no binding	–	–	–
SEQ ID NO: 14: amino acid at position 5 in SEQ ID NO: 29 substituted with alanine (PQQQAPQQHQFPQQQ; epitope)	–	did not develop binding activity	retained binding activity; also recorded: substantially increased binding activity	–
SEQ ID NO: 33: amino acid at position 4 in SEQ ID NO: 22 substituted with alanine (QQFPQQEFAQQQQFP; modified epitope)	–	developed binding activity	lost or reduced	–
SEQ ID NO: 21: overlapping 10-amino-acid peptide fragment from SEQ ID NO: 15 library (QFPQQEFPQQ; epitope candidate)	no binding	–	–	–
SEQ ID NO: 28: overlapping 10-amino-acid peptide fragment from SEQ ID NO: 23 library (QQFPQQQPPQ; epitope candidate)	no binding	–	–	–
SEQ ID NO: 27: overlapping 10-amino-acid peptide fragment from SEQ ID NO: 23 library, contains SEQ ID NO: 29 (QFPQQQPPQQ; epitope candidate)	slightly weaker binding	–	–	–
SEQ ID NO: 35: amino acid at position 1 in SEQ ID NO: 22 substituted with alanine (QQFPQAEFPQQQQFP; modified epitope)	–	developed a relatively low level of binding activity	slightly reduced binding activity	developed a relatively low level of binding activity
SEQ ID NO: 17: overlapping 10-amino-acid peptide fragment from SEQ ID NO: 15 library, contains SEQ ID NO: 22 (QEFPQQQQFP; epitope candidate)	slightly weaker binding	–	–	–
